# Test results from patent US20210254272A1, “TEXTILES HAVING ANTIMICROBIAL PROPERTIES” (Livinguard AG, priority 2015, published 2021).
# Assay: Leaching: 10 grams fabric in 100 milliliters distilled water, 7 days, GC-MS
# Format: physicochemical
# Description: To test for a potential leaching of the antimicrobial agents fixed to the textile material, the following test was performed. A test fabric of polyester 65%/cotton 35% with 210 g/m2 was treated with polyhexamethylenebiguanide (PHMB) 0.5%, silver chloride 0.075%, octadecylaminomethyl trihydroxysilylpropyl ammonium chloride (organosilane) 0.4%, and propiconazole 0.5%
# The treated textile material was put into distilled water at a ratio of 1:10. Specifically, a fabric of 10 grams was soaked in 100 milliliters of distilled water. The fabric was incubated in the water for 7 days at room temperature, i.e. between 21 and 25° C.
# Following said incubation time, the fabric was removed from the water and the exposed water was tested for the presence of the above five active ingredients using gas chromatography-mass spectrometry (GC-MS).
structure (smiles),measurement,value
[Cl][Ag] [Silver chloride],"Extracted water Conc, ppm",BDL (BDL-below detection limit Detection limit: 1 parts per million (ppm))
